From patent US10288604B2, “Method for imaging cell using fluorescence-labeled sugar derivative having coumarin derivative bound thereto, and imaging agent” (HIROSAKI UNIVERSITY, priority 2012, dated 2019) come the findings set out here.

For this experiment, the system named is mouse insulinoma cells (MIN6). Nature of the experiment: Uptake into MIN6 cells and influence of glucose transport inhibitors (fluorescent microplate reader). The experiment is classed as cell-based. As for the experimental part:
Cryopreserved MIN6 cells (cells donated from Professor Miyazaki Junichi of Osaka University and cultured 5 to 8 passages) were subjected to culture according to an ordinary method, and cultures at 7 to 9 passages were used in experiments.
NaCl 129.0 mM, KCl 4.75 mM, KH2 PO4 1.19 mM, MgSO4.7H2O 1.19 mM, CaCl2.2H2O 1.0 mM, NaHCO3 5.02 mM, D-Glucose 5.6 mM, HEPES 10 mM (pH was adjusted to 7.35 with 1M NaOH). For inhibiting entrance and elimination of a fluorescently labeled glucose via gap junction/hemichannel, 0.1 mM Carbenoxolone (SIGMA #C4790) was added. This KRB solution was used as a solution for preparing a 2-PBLG solution.
2-PBDG and 2-PBLG were charged into wells at the third column and the fifth column, respectively, using a 8-channel pipette. Before administration, the autofluorescence of each well was measured beforehand by a fluorescent micro plate reader (Flex Station, manufactured by Molecular Device). The measurement conditions include Bottom Read, Ex 401 nm, Em 453 nm, Cut off 420 nm, Averaging 3, and high sensitivity of Photomultiplier. In the measurement method, Well Scan Mode was used. In Well Scan Mode, the inside of one well was divided into 9 regions of interest (diameter: 1.5 mm) and measurement was performed each independently.
Next, in wells (3C, 3E, 3G) for measuring the effect of a glucose transport inhibitor phloretin, phloretin (final 150 μM) was administered beforehand from 5 minutes prior to administration of 2-PBDG, while KRB was added to other wells (3B, 3D, 3F). Similar operation was also conducted on the fifth column where 2-PBLG was to be administered. 2-PBDG and 2-PBLG were administrated at 37° C. for 10 minutes.
After completion of administration, a diluting operation of the fluorescence solution in the well using 300 μL of a KRB solution was repeated set times each for 30 seconds. The repetition time was determined so that the fluorescence intensity detected by wells of A-th row and H-th row set as a control group was equivalent to the fluorescence intensity of a blank well containing no cell, and complete washout was confirmed in every experiment. In the case of 2-PBDG and 2-PBLG, this washout process needed 8 minutes, thus, measurement of fluorescence after administration was carried out 9 minutes after.
According to this method, even if cells having undergone a loss of the plasma membrane contacted 2-PBDG and 2-PBLG and once took up these compounds into themselves, it is judged that contribution of the increase in the fluorescence intensity to the whole observation area was ignorable level since these compounds had already been washed out of the cells when performing the measurement. This was supported by a pharmacological inhibition experiment separately in which the increase in the fluorescence intensity almost completely disappeared in the presence of an inhibitor. The above-described method was conducted in the same manner also when other inhibitor, for example, cytochalasin B (10 μM) was added.
The change of fluorescence intensity by administration of a D-glucose derivative (2-PBDG), an L-glucose derivative (2-PBLG) and PB—NH2 prepared by amidating Pacific Blue (PB) chromophore group to MIN6 cells on day of 10 of culture and the effect by a glucose transport inhibitor were confirmed in the same manner as in Example 4. PB—NH2 has the following structure (Ex max. 402 nm, Em max. 451 nm).
An experiment was conducted in the same manner as in Example 4.
The experiment was carried out 3 times independently, and the same results were obtained in all cases. In the experiment of administration of 2-PBDM, excitation occurred at a maximum excitation light wavelength of 404 nm and fluorescence was acquired at a maximum emission wavelength of 453 nm.

As to `O=C(NC1C(O)OC(CO)[C@H](O)C1O)c1cc2cc(F)c(O)c(F)c2oc1=O` (stereo partly drawn) [2-PBLG, 2-Deoxy-2-((6,8-difluoro-7-hydroxycoumarin-3-yl)carboxamido)-L-glucose], the “decreased value of fluorescence intensity owing to phloretin (average)” value (100 μM derivative, 150 μM phloretin, MIN6 day 10, increase without phloretin as reference) amounted to 20.0%. Besides, the “effect of phloretin on increase in fluorescence intensity (in words)” value (100 μM derivative, phloretin 150 μM, MIN6 day 10) is given as “inhibited the increase in the fluorescence intensity by 2-PBLG slightly”. The “difference between fluorescence intensity of 2-PBDG and of 2-PBLG” value (100 μM each, absence of phloretin, 2-PBDG = 100%) is recorded as “no significant difference”. Further, the “fluorescence intensity after administration as compared with that before administration” value (100 μM, MIN6 on day 10 of culture, Ex 401 nm, Em 453 nm) is on record as “increases significantly”.
